This note sets out measurements from PMC7053711, “A G protein–coupled receptor mediates neuropeptide-induced oocyte maturation in the jellyfish Clytia” (PLoS Biology, 2020).

Each structure is given as a SMILES string. Peptide text beside a SMILES is read from it.

Assay [1] relates to wild-type (WT) isolated female gonads. The assay is described as follows: Gonad spawning assay, wild-type isolated gonads. On the set-up: species or system Clytia hemisphaerica. How it is done: We performed a series of oocyte maturation and spawning assays, comparing the responses of wild-type and MIHR mutant isolated gonads and oocytes to different stimuli (Fig 4).
Sexually mature MIHR mutant medusae from colonies n5-13 and n5-23 and wild-type medusae were cultured on the same day–night cycle. Individual gonads were dissected in the evening after afternoon spawning. To test the light response, one group of each was transferred to 100 μL MFSW in wells of 96-well plastic plates, covered overnight, and re-exposed to white light the following day. To test responses to MIH and cAMP, other groups of dissected gonads were cultured overnight in constant light, then transferred to 96-well plastic plates for two hours. MIH was added to wells as an equal volume of 200 nM WPRPamide (GenScript) stock in MFSW was added to give a final concentration of 100 nM. Alternatively, a stock of 20 mM bromo adenosine 3′,5′cyclic monophosphate (Br-cAMP–Fluka; Sigma Aldrich) in distilled water was added to give a final concentration of 4 mM. Gonads were washed after 5 minutes incubation in Br-cAMP. Oocyte maturation was scored after 30 minutes as germinal vesicle breakdown (GVBD), i.e., visible dissolution of the oocyte nuclear membrane upon entry into M phase, which in all cases was followed by spawning about 1 hour later.
(§1) Supplementary file pbio.3000614.s013.xlsx: S3 Data Numerical data corresponding to Fig 4A and 4C. The first tab collects all the raw data from 3 independent gonad spawning assays. Information corresponding to the Fisher exact tests is also shown. […] The means and standard deviations were used to prepare the graph in Fig 4C. Information corresponding to the Fisher exact tests is also shown. (XLSX) Click here for additional data file.

Assay [2] concerns fully grown oocytes isolated from MIHR mutant (n5-23) gonads. Kind of assay: Oocyte maturation assay, MIHR mutant isolated oocytes (GVBD). Format: cell-based, Clytia hemisphaerica. To be noted: for Oocyte maturation (number) / Percentage of Oocytes maturing: 0,1uM WPRPa, MIH R K.O.
Text: Fig 4 Oocyte maturation failure in MIHR mutant medusae. Oocyte maturation assays performed using isolated gonads (A, B) or isolated oocytes (C) from MIHR mutant jellyfish compared to WT. In A and C, bar heights represent mean percentages of 3 independent experiments and error bars show standard deviations. Total gonad or oocyte numbers for each treatment are indicated in gray. (A) Spawning response of isolated gonads from WT and n5-23 female medusae. Three treatments were compared as indicated above each panel: Light: light stimulation after incubation in the dark; MIH: treatment of light-maintained gonads with 100 nM WPRPamide; cAMP: treatment of light-maintained gonads with 4 mM Br-cAMP. […] Full datasets from three independent experiments are available in S3 Data. (B) Light microscope images illustrating gonads from an equivalent experiment performed with n5-13 female MIHR mutant medusae 120 minutes after the indicated treatments. Scale bar: 500 μm. […] Full datasets from 3 independent experiments are available in S3 Data. Br-cAMP, bromoadenosine 3′,5′-cyclic monophosphate; cAMP, cyclic adenosine monophosphate; KO, knockout; MIH, maturation-inducing hormone; MIHR, MIH receptor; WT, wild-type.
Fully grown oocytes were isolated manually from dissected gonads of wild-type and MIHR KO mutant jellyfish prepared as above. Maturation assays were performed in wells of 96-well plates or small plastic petri dishes lined with 2% agarose in MFSW. Spontaneous maturation occurs at a low frequency in control oocytes. To test MIH-induced maturation, 10 μL WPRPamide from 1 μM solution in MFSW was added to a final concentration of 100 nM. In some experiments, Br-cAMP from a 20 mM stock in H2O was used at a final concentration of 4 mM. GVBD was scored at 30 minutes, every 5 minutes, depending on experiments.
as §1

[3] abbreviates: 0,1uM WPRPa, wild type, replicate 1, total 22.
[4] abbreviates: 0,1uM WPRPa, wild type, replicate 2, total 24.
The mark [5] stands for this setting: 0,1uM WPRPa, wild type, replicate 3, total 18.
Where [6] appears, read: WPRPa, pooled n=64, Fisher exact test vs MIHR KO significant at p < .01.
[7] abbreviates: WPRPa, pooled n=46, Fisher exact test vs WT significant at p < .01.

`N=C(N)NCCC[C@H](NC(=O)[C@@H]1CCCN1C(=O)[C@@H](N)Cc1c[nH]c2ccccc12)C(=O)N1CCC[C@H]1C(N)=O` [WPRPa] (H-WPRP-NH2; N-terminus assumed): the “Percentage of spawning gonads, Mean” value in assay [1] (0,1uM WPRPa, wild type, mean of 3 replicates, Desvest 7.87296) is reported as 95.4545. Moreover, the results for the “Gonads spawning (number)” value in assay [1] (setting [3]), in assay [1] (setting [4]) and in assay [1] (setting [5]) were 19, 24 and 18, respectively. The “Percentage of spawning gonads” value in assay [1] (setting [3]) was 86.3636; in assay [1] (setting [4]), 100; in assay [1] (setting [5]), 100. In assay [1] (setting [6]), the “Non-spawning gonads, WT NO” value was determined as 3. Further, in assay [1] (setting [6]), the “Spawning gonads, WT YES” value is on record as 61. For the same compound, in assay [1] (isolated WT gonads, 100 nM WPRPamide), the “oocyte maturation and spawning of WT gonads” value is “underwent oocyte maturation and spawning”. The “Oocyte maturation (number)” value came to 1 in assay [2] (replicate 1, total 14); 0 in assay [2] (replicate 2, total 11); 2 in assay [2] (replicate 3, total 21.00). Moreover, the “Percentage of Oocytes maturing” value in assay [2] (replicate 1, total 14) stood at 7.14; in assay [2] (replicate 2, total 11), 0.00; in assay [2] (replicate 3, total 21.00) it was 9.52. Further, the “Maturing oocytes, MIHR KO YES” value in assay [2] (setting [7]) turned out to be 3. Further, the “Non-maturing oocytes, MIHR KO NO” value in assay [2] (setting [7]) was 43.
